Measured values: publication PMC11284788, “NN1213 – A Potent, Long-Acting, and Selective Analog of Human Amylin” (Journal of Medicinal Chemistry, 2024)
pEC50: −log10 of the molar value. Read-outs that look alike come from different tables or passages of the source. Numbered stars: 1 amine (or outer) side, 2 acyl side, 3 side chain; on linkers, the order of the positions; unused ones are H or OH. Bridge positions count the residues as written; N and C are the ends. Peptide text beside a SMILES is read from it. * marks the point of attachment. C20 diacid = O=C(O)CCCCCCCCCCCCCCCCCCC(=O)*; γGlu = O=C(O)[C@H](CCC(=O)[*:2])N[*:1]; AEEA = NCCOCCOCC(=O)O

Experiments:
[1] = target: T1, hCTR (Homo sapiens, UniProt P30988); assay: cAMP-responsive element luciferase reporter assay, human CTR; format: cell-based; details: luciferase (human receptor assay); for pEC50: BHK cells stably expressing hCTR and CRE-luciferase, 3 h, 37 °C, 10% FBS, read-out: hCTR EC50
T1 sequence (P30988 25-474): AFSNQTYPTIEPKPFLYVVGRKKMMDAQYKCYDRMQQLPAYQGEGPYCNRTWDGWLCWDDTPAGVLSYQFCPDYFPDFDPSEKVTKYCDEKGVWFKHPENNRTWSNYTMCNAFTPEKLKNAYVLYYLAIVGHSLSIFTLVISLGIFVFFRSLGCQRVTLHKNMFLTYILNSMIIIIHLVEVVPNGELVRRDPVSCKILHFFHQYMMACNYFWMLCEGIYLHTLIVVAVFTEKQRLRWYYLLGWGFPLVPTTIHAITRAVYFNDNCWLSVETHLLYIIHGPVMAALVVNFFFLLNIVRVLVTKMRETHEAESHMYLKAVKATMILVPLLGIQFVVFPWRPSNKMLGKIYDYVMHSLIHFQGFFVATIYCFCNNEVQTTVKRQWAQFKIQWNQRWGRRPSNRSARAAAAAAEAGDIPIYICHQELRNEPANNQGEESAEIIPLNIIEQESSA

[2] = ThT assay: fibril formation propensity and peptide recovery; format: physicochemical; details: for ThT, pH 4.0 lag-time: 250 μM peptide, 10 mM glycylglycine pH 4.0, 1 μM ThT, 37 °C, 960 rpm, 45 h, lowest of four replicas, average of experiments; for recovery: pH 4.0, residual dissolved peptide after 45 h of shaking, centrifugation and 0.22 μm filtration, HPLC, relative to amount before stress
Summary of the method: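 Fibrillation lag time is read visually from ThT fluorescence-time curves (444/485 nm, 20-min reads, 45 h, 37 °C, 960 rpm shaking) of 250 μM peptide with 1 μM ThT at pH 4.0 or 7.5. The most conservative of four replicates is used. Peptide recovery is post-stress soluble peptide (HPLC, 215/276 nm) as fraction of initial.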

[3] = tested on: rats; assay: Acute food intake in rats; format: in vivo, rat; details: single sc injection of 30 nmol/kg, relative to vehicle, mean ± SEM, n = 5–7 per group
[4] = target: T1, hCTR; assay: scintillation proximity binding assay, hCTR membranes; parameters: expressed in transfected cells; host or cells: BHK tk-ts 13, transient (FuGENE 6); membranes for the SPA, whole cells for the species-specific assays; details: SPA binding assay, Tables S13 and S15
Procedure: The apparent binding affinities were determined using a scintillation proximity assay with beads from PerkinElmer and cell membranes containing the AMY3R or CTRs. […] Membranes were harvested and membranes were prepared and kept at −80 °C until use. The assay was performed in a 384-well Optiplate (PerkinElmer). Membranes were mixed with scintillation proximity assay beads in a 1:1 ratio. […] Samples were analyzed on a TopCounter (Packard). The IC50 values were calculated using GraphPad Prism. See Supporting Information S7: SAR Screening Assay Methods (Binding Assays (Human and Rat)) for more information.
Binding Assays (Human and Rat). Brief descriptions of the methods used to determine binding affinities for SAR analysis are described below. Curves and IC50 values were plotted and calculated in GraphPad Prism using nonlinear regression (one site binding competition analysis), with pIC50 values […]
values were used to calculate the binding affinity ratios in order to express the selectivity of compounds for the AMY3R versus the CTR.
CTR Binding Assay. The binding assay was performed using scintillation proximity assay (SPA) beads (RPNQ0001) from PerkinElmer and cell membranes containing either the hCTR or rCTR. BHK […]
Membranes were prepared in the following way: the cells were rinsed with PBS and incubated with Versene for approximately 5 min before harvesting. The cells were flushed with PBS and the cell-suspension was centrifuged for 5 min at 1000 rpm. Cells were homogenized (Ultra Turrax) in a buffer […]
containing 20 mM Na-HEPES and 0.1 mM EDTA (pH 7.4, buffer 2). The resulting pellet was re-suspended in buffer 2 and protein concentration was measured (BCA protein assay, Pierce). The homogenate was kept cold during the whole procedure. The membranes were stored at –80 °C until […]
The binding assay was performed in a 384-well Optiplate (PerkinElmer) in a total volume of 40 μL.
Membranes were mixed with SPA beads in a 1:1 ratio. […]
mg/well. Test compounds were dissolved in DMSO and further diluted in assay buffer (50 mM HEPES, pH 7.4, 1 mM CaCl2, 5 mM MgCl2, 0.1% ovalbumin, and 0.02% Tween-20).
Calcitonin (NEX422 PerkinElmer) was dissolved in assay buffer and added to the Optiplate at a final […]
prior to centrifugation (1500 rpm, 10 min). Samples were analyzed on TopCounter (Packard).

| SMILES | hCTR pEC50 ([1]; Tables S12 and S14) | pEC50 [1] | ThT, pH 4.0 lag-time [2] | recovery [2] | Acute food intake reduction 0–24 h [3] | Acute food intake reduction 24–48 h [3] | hCTR pIC50 [4] | EC50 ([1]; Tables S12 and S14, read-out: hCTR pEC50 (converted)) |
| --- | --- | --- | --- | --- | --- | --- | --- | --- |
| CC[C@H](C)[C@H](NC(=O)[C@H](C)NC(=O)CNC(=O)[C@H](Cc1ccccc1)NC(=O)[C@H](CC(N)=O)NC(=O)[C@@H]1CCCN1C(=O)[C@H](CO)NC(=O)[C@H](CO)NC(=O)[C@H](Cc1c[nH]cn1)NC(=O)[C@H](CCCNC(=N)N)NC(=O)[C@H](CC(C)C)NC(=O)[C@H](Cc1ccccc1)NC(=O)[C@H](CC(N)=O)NC(=O)[C@H](C)NC(=O)[C@H](CC(C)C)NC(=O)[C@H](CCCNC(=N)N)NC(=O)[C@H](CCC(N)=O)NC(=O)[C@@H](NC(=O)[C@H](C)NC(=O)[C@@H]1CSSC[C@H](NC(=O)[C@H](CCCCN)NC(=O)CC[C@H](NC(=O)CCCCCCCCCCCCCCCCCCC(=O)O)C(=O)O)C(=O)N[C@@H](CC(N)=O)C(=O)N[C@@H]([C@@H](C)O)C(=O)N[C@@H](C)C(=O)N[C@@H]([C@@H](C)O)C(=O)N1)[C@@H](C)O)C(=O)N1CCC[C@H]1C(=O)N[C@@H](CO)C(=O)N[C@@H](CO)C(=O)N[C@H](C(=O)N[C@@H](CC(N)=O)C(=O)N[C@H](C(=O)NCC(=O)N[C@@H](CO)C(=O)N[C@@H](CCCCN)C(=O)N[C@H](C(=O)N[C@@H](Cc1ccc(O)cc1)C(N)=O)[C@@H](C)O)C(C)C)[C@@H](C)O [Peptide 13] | 8.58 | 8.58 | 35 h | 99% | 37 ± 7% | 25 ± 7% | 7.13 | – |
| CC[C@H](C)[C@H](NC(=O)[C@H](C)NC(=O)CNC(=O)[C@H](Cc1ccccc1)NC(=O)[C@H](CC(N)=O)NC(=O)[C@@H]1CCCN1C(=O)[C@H](CO)NC(=O)[C@H](CO)NC(=O)[C@H](Cc1c[nH]cn1)NC(=O)[C@H](CCCNC(=N)N)NC(=O)[C@H](CC(C)C)NC(=O)[C@H](Cc1ccccc1)NC(=O)[C@H](CCC(=O)O)NC(=O)[C@H](C)NC(=O)[C@H](CC(C)C)NC(=O)[C@H](CCCNC(=N)N)NC(=O)[C@H](CCC(N)=O)NC(=O)[C@@H](NC(=O)[C@H](C)NC(=O)[C@@H]1CSSC[C@H](NC(=O)[C@H](CCCCN)NC(=O)CC[C@H](NC(=O)CCCCCCCCCCCCCCCCCCC(=O)O)C(=O)O)C(=O)N[C@@H](CC(N)=O)C(=O)N[C@@H]([C@@H](C)O)C(=O)N[C@@H](C)C(=O)N[C@@H]([C@@H](C)O)C(=O)N1)[C@@H](C)O)C(=O)N1CCC[C@H]1C(=O)N[C@@H](CO)C(=O)N[C@@H](CO)C(=O)N[C@H](C(=O)N[C@@H](CC(N)=O)C(=O)N[C@H](C(=O)NCC(=O)N1CCC[C@H]1C(=O)N[C@@H](CC(N)=O)C(=O)N[C@H](C(=O)N[C@@H](Cc1ccc(O)cc1)C(N)=O)[C@@H](C)O)C(C)C)[C@@H](C)O [Peptide 12] ({C20 diacid-γGlu}-KCNTATCATQRLAEFLRHSSPNFGAIPSSTNVGPNTY-NH2; disulfide 2-7) | – | 9.50 | >45 h | 78% | – | 7 ± 7% | 8.96 | 0.316 nM |
| CC[C@H](C)[C@H](NC(=O)[C@H](C)NC(=O)CNC(=O)[C@H](Cc1ccccc1)NC(=O)[C@H](CC(N)=O)NC(=O)[C@@H]1CCCN1C(=O)[C@H](CO)NC(=O)[C@H](CO)NC(=O)[C@H](Cc1c[nH]cn1)NC(=O)[C@H](CCCNC(=N)N)NC(=O)[C@H](CC(C)C)NC(=O)[C@H](Cc1ccccc1)NC(=O)[C@H](CC(N)=O)NC(=O)[C@H](C)NC(=O)[C@H](CC(C)C)NC(=O)[C@H](CCCNC(=N)N)NC(=O)[C@H](CCC(N)=O)NC(=O)[C@@H](NC(=O)[C@H](C)NC(=O)[C@@H]1CSSC[C@H](NC(=O)[C@H](CCCCN)NC(=O)COCCOCCNC(=O)COCCOCCNC(=O)CC[C@H](NC(=O)CCCCCCCCCCCCCCCCCCC(=O)O)C(=O)O)C(=O)N[C@@H](CC(N)=O)C(=O)N[C@@H]([C@@H](C)O)C(=O)N[C@@H](C)C(=O)N[C@@H]([C@@H](C)O)C(=O)N1)[C@@H](C)O)C(=O)N1CCC[C@H]1C(=O)N[C@@H](CO)C(=O)N[C@@H](CO)C(=O)N[C@H](C(=O)N[C@@H](CC(N)=O)C(=O)N[C@H](C(=O)NCC(=O)N[C@@H](CO)C(=O)N[C@@H](CC(N)=O)C(=O)N[C@H](C(=O)N[C@@H](Cc1ccc(O)cc1)C(N)=O)[C@@H](C)O)C(C)C)[C@@H](C)O [Peptide 10] | – | – | 34 h | 0% | 22 ± 5% | 1 ± 5% | 6.99 | – |
| CC[C@H](C)[C@H](NC(=O)[C@H](C)NC(=O)CNC(=O)[C@H](Cc1ccccc1)NC(=O)[C@H](CC(N)=O)NC(=O)[C@@H]1CCCN1C(=O)[C@H](CO)NC(=O)[C@H](CO)NC(=O)[C@H](Cc1c[nH]cn1)NC(=O)[C@H](CCCNC(=N)N)NC(=O)[C@H](CC(C)C)NC(=O)[C@H](Cc1ccccc1)NC(=O)[C@H](CC(N)=O)NC(=O)[C@H](C)NC(=O)[C@H](CC(C)C)NC(=O)[C@H](CCCNC(=N)N)NC(=O)[C@H](CCC(N)=O)NC(=O)[C@@H](NC(=O)[C@H](C)NC(=O)[C@@H]1CSSC[C@H](NC(=O)[C@H](CCCCN)NC(=O)COCCOCCNC(=O)CC[C@H](NC(=O)CCCCCCCCCCCCCCCCCCC(=O)O)C(=O)O)C(=O)N[C@@H](CC(N)=O)C(=O)N[C@@H]([C@@H](C)O)C(=O)N[C@@H](C)C(=O)N[C@@H]([C@@H](C)O)C(=O)N1)[C@@H](C)O)C(=O)N1CCC[C@H]1C(=O)N[C@@H](CO)C(=O)N[C@@H](CO)C(=O)N[C@H](C(=O)N[C@@H](CC(N)=O)C(=O)N[C@H](C(=O)NCC(=O)N[C@@H](CO)C(=O)N[C@@H](Cc1c[nH]cn1)C(=O)N[C@H](C(=O)N[C@@H](Cc1ccc(O)cc1)C(N)=O)[C@@H](C)O)C(C)C)[C@@H](C)O [Peptide 18] ({C20 diacid-γGlu-AEEA}-KCNTATCATQRLANFLRHSSPNFGAIPSSTNVGSHTY-NH2; disulfide 2-7; N-terminus assumed) | – | – | 15 h | 30% | – | 3 ± 6% | – | – |
